Experimental data published in paper PMC5384220 (Nature Communications, 2017).
“Also recorded” adds a separate entry of the source.

Assays:
[1] = target: T1, KDM4A (Homo sapiens, UniProt O75164); experiment: AlphaScreen demethylase activity assay, KDM4A; format: biochemical; conditions: ratio of IC50 values
T1 construct: KDM4A 1-359 E.coli; Hexa-His (N); made in house; host or cells: E. coli
T1 sequence (O75164 1-359): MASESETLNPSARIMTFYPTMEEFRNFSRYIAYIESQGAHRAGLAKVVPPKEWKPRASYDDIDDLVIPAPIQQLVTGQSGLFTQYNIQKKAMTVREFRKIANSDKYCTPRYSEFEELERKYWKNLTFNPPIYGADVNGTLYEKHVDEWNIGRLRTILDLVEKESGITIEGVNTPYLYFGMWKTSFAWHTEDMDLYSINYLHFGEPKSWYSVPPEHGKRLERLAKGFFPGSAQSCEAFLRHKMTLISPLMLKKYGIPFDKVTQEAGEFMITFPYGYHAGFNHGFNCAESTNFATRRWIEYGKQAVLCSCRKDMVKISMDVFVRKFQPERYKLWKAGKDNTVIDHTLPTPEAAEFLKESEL
Method: IC50 values for KDM2–6 were measured using an AlphaScreen assay as described. The appropriate KDM (5 μl) was pre-incubated with an inhibitor (0.1 μl in DMSO) or DMSO for 15 min before the addition of 5 μl mixture of biotinylated peptide substrates, 2OG, ferrous ammonium sulfate (1–10 μM final) and ascorbate (100 μM final) to initiate the demethylation reaction. The reaction was quenched with 5 μl of 30 mM EDTA at predetermined reaction times for each enzyme (initial rate). Demethylated product was detected by addition of 5 μl of AlphaScreen donor and acceptor beads (AlphaScreen General IgG Detection Kit, 0.02 mg ml^−1 final each) pre-incubated with antibody. The plates were read after 1 h incubation in a BMG Labtech Pherastar FS plate reader. Data were normalized to a no enzyme control and IC50 values were calculated using nonlinear regression curve fits using GraphPad Prism. Assay buffer (50 mM HEPES pH 7.5, BSA (0.1% w/v) and Tween-20 (0.01% v/v)) was used throughout, except for dilution of stock ferrous ammonium sulfate solutions where water was used. The enzyme, substrate and antibody concentrations used are described in Supplementary Table 3. A fluorescence-based LSD1 inhibitor screening assay kit (Cayman, 700120) was used for KDM1/LSD1 assay. Assays for prolyl hydroxylase domain 2 and factor inhibiting HIF using matrix-assisted laser desorption/ionization–time of flight MS were performed as previously described. Prism 5.0 (GraphPad) was used to generate and to fit dose–response curves. IC50 values were determined by plotting percentage inhibition versus compound concentration relative to positive (vehicle) and negative (no enzyme) controls, using normalized dose–response (variable slope) fit. The reported values are the mean of multiple experiments (n≥3). The formaldehyde dehydrogenase coupled KDM assay was used to determine the mode of inhibition, using 0.5 μM His-KDM4A1–359. Prism 5.0 (GraphPad) was used to fit in mix-mode inhibition, to determine the kinetic parameters. Binding constants for CPs and H3(1–15)K9me3 were measured using biolayer interferometry (OctetRed 384, ForteBio) in buffer (50 mM HEPES (pH 7.5), 150 mM NaCl, 10 μM ammonium iron(II) sulphate). His-KDM4A1–359-Bio (70 nM) was immobilized onto super streptavidin biosensor and subjected to different peptide concentrations in buffer. Data analysis was performed using ForteBio Data Aalysis (v6.4).
Construct Expression [E] / nM [2OG] / µM [Fe(II)] / µM Peptide / nM Peptide sequence Antibody Source […]
Supplementary Table 3. AlphaScreen assay parameters for 2OG oxygenases used for this study. The table was dapted from 10. Assays were performed at 2OG concentration near the 2OG Km values determined experimentally.11 All enzymes were expressed and purified as described.10-12

[2] = test system: H3K9me3/H3K36me3 in HeLa cells; experiment: Immunofluorescence of global histone methylation, 72 h dosing; format: cell-based; conditions: 72 h treatment
From the text: Supplementary Figure 12. Immunofluorescence analysis of global histone methylation levels after 72hr dosing of cyclic peptides in HeLa cells. (a)-(c) Immunofluorescence analysis of HeLa cells dosed with cyclic peptides for 72 hrs. Maximum intensity projected images of 3D confocal z-stacks showing nuclei stained with […]
DMSO and CP2 treated cells. Bar represents 50µm. Global H3K9me3 (d) and associated nuclei count for the […]
staining, (h) global H3K4me3 and (i) global H3K27me3 staining. An increase in fluorescence intensity, […]
over certain concentration ranges. Average +/- s.e.m (n > 100 cells) are shown except at concentrations of […]
A generic 2OG oxygenase inhibitor 5-carboxy-8-
Immunofluorescence (IF) assay […]
with 0.5% FBS and 1% Pen-Strep. […]
grade plate (Becton Dickinson) and left overnight to adhere. Cells were dosed with cyclic […]
After 30min blocking (3% FBS in […]
three times after each incubation. […]
Image acquisition and analysis […]
image immunostained cells in a 96-well plate configuration. For each well, the system […]
The average intensity for each […]
analysed using GraphPad Prism 5. […]

[3] = target: T2, FLAG-KDM4E (Homo sapiens, UniProt B2RXH2); experiment: CETSA, FLAG-KDM4E in U2OS cells; format: cell-based; conditions: 0.5 µM
T2 construct: expressed in transfected cells; host or cells: U2OS
T2 sequence (B2RXH2 1-506): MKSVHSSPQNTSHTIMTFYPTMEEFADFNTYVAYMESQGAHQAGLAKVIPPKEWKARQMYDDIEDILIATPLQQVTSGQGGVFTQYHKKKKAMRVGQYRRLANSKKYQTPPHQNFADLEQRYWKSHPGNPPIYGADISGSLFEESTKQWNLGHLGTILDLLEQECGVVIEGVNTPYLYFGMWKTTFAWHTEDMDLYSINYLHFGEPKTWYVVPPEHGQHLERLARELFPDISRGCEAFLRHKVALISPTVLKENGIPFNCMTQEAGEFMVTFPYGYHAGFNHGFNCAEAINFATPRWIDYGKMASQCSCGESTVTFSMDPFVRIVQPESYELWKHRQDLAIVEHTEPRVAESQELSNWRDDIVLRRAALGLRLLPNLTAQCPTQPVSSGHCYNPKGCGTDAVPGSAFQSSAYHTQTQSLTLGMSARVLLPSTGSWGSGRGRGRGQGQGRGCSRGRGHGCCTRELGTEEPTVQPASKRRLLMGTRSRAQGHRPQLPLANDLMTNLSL
Method: For CETSA melting curve experiments, 80% confluent U2OS cells in a 75 cm^2 flask were transfected with a plasmid encoding full-length Flag-tagged KDM4A1–1,064 (ref. [15]) or KDM4E1–506 (ref. [20]) using Lipofectamine 2000 (Thermo Scientific) and incubated for 4 h. The cells were washed with PBS buffer and media replaced with fresh DMEM with 10% FBS, supplemented with cyclic peptides in DMSO (0.1% DMSO final). Cell dosing was carried out for 20 h at 37 °C. Control cells were dosed only with DMSO. The cells were trypsinized and washed thrice with PBS, by centrifugation (300 g, 3 min, 4 °C). Cells were re-suspended in PBS supplemented with Complete Protease inhibitor cocktail (Sigma) and divided into 8–10 aliquots (100 μl) containing equal cell numbers in PCR tubes. For ITDRF CETSA experiments, approximately 6 × 10^6 cells were seeded evenly into nine 25 cm^2 flask and adhered before transfection. After 4 h of incubation, the cells were washed with PBS buffer and the media replaced with fresh DMEM with 10% FBS supplemented with cyclic peptides at a final concentration between 0 and 4,000 nM (0.1% DMSO final). Cells were trypsinized and washed thrice with PBS using centrifugation (300 g, 3 min, 4 °C). Cells were re-suspended in PBS supplemented with protease inhibitor cocktail (Sigma), aliquots (100 μl) containing equal cell numbers in PCR tubes were prepared. […] For ITDRF, tubes were incubated at approximately the Tm of the proteins of interest as determined by CETSA melting curve experiments, for example, 55 °C (Tm for actin) for 3 min, followed by room temperature for 3 min. […]
The samples (supernatant) were run on SDS–PAGE (NuPage Novex Bis-Tris 4–12% polyacrylamide gels with NuPAGE MES SDS running buffer (Thermo Scientific)) and transferred onto nitrocellulose membranes using either the iBlot blotting system. FLAG-KDM4A levels were determined by immunoblotting using a monoclonal mouse anti-FLAG primary antibody (F1804, Sigma), at a dilution of 1: 1,000 in PBS-T buffer containing Seablock Reagent Salmon Plasma (2% v/v, Calbiochem). […]

[4] = target: T3, His-KDM4A1-359-Bio (Homo sapiens, UniProt O75164); experiment: Biolayer interferometry binding to KDM4A
T3 construct: KDM4A protein (residues 1-359) was cloned into the pNIC-Bio3 plasmid, which incorporates a C-terminal AviTag; made in house; host or cells: E. coli BL21(DE3)Rosetta co-transfected with pCDF-BirA
T3 sequence (O75164 1-359): T1 sequence (O75164 1-359)
Method: The formaldehyde dehydrogenase coupled KDM assay was used to determine the mode of inhibition[34], using 0.5 μM His-KDM4A1–359. Prism 5.0 (GraphPad) was used to fit in mix-mode inhibition, to determine the kinetic parameters. Binding constants for CPs and H3(1–15)K9me3 were measured using biolayer interferometry (OctetRed 384, ForteBio) in buffer (50 mM HEPES (pH 7.5), 150 mM NaCl, 10 μM ammonium iron(II) sulphate). His-KDM4A1–359-Bio (70 nM) was immobilized onto super streptavidin biosensor and subjected to different peptide concentrations in buffer. Data analysis was performed using ForteBio Data Aalysis (v6.4).
KDM4A1-359 was immobilized and analysed for binding to peptides at different concentrations.
The concentration of KDM4A in the assay mixture was 0.5 µM.

With DYVYNTRSGWRWYTC [CP2] the “Intra-subfamily selectivity KDM4A-C over KDM4D-E” value [1] was > 100 fold, the “Selectivity by IC50 for KDM4 over other JmjC-demethylase families, PHD2, FIH and KDM1A” value [1] was > 160 fold and the “Change in global H3K9me3/H3K36me3 levels” value [2] was “did not have any apparent effect; also recorded: no discernible changes”. For the same sequence, the “CETSA stabilization / Tm shift of FLAG-KDM4E” value [3] was “No significant changes in the Tm shift; also recorded: not stabilized”, the “KDM4A Binding kdiss” value [4] was 0.00407 s⁻¹ and the “KDM4A Binding kon” value [4] was 137000 M⁻¹ s⁻¹.
